By pIC50 is commonly meant −log10 of the IC50, conventionally taken in molar units. Usually half-life stands for the time in which the quantity being followed falls by half. As a reminder, the bioavailability is dose-corrected exposure relative to a reference, in per cent. As usually defined, the CL/F is the apparent clearance, not corrected for the fraction that reaches the circulation.

The values below come from ChEMBL document CHEMBL1140833, “Potent heteroarylpiperidine and carboxyphenylpiperidine 1-alkyl-cyclopentane carboxamide CCR2 antagonists” (Bioorg Med Chem Lett, 2008).

Series [1] deals with C-C chemokine receptor type 2 (Homo sapiens, UniProt P41597). The series can be described thus: Displacement of [125I]MCP1 from CCR2 receptor in human monocytes. Format: cell-based.
Series [2] is described as follows: Selectivity for human CCR2 over IKr.
In series [3] the target is Voltage-gated inwardly rectifying potassium channel KCNH2 (Homo sapiens, UniProt Q12809). Briefly: Displacement of [[…]]MK499 from human ERG expressed in HEK cells. The format is cell-based, HEK293.
Series [4] concerns the target C-C chemokine receptor type 5 (Homo sapiens) (UniProt P51681). The series can be described thus: Inhibition of CCR5 at 1 uM. On the set-up: scale not given: the % may be the effect or the level left.
The nature of series [5]: Half life in rat at 3 mg/kg, po. On the set-up: dose 3 mg/kg, route oral. Format: ADME, organism-based. Particulars: in vivo.
Series [6] in a line: Oral bioavailability in rat at 3 mg/kg. Particulars: in vivo. The format is ADME, organism-based.
The nature of series [7]: Clearance in rat at 3 mg/kg, po. The format is ADME, organism-based. On the set-up: dose 3 mg/kg, route oral. Particulars: in vivo.

pIC50: −log10 of the molar value.

Sequence of C-C chemokine receptor type 5 (Homo sapiens) (P51681 whole entry, looked up): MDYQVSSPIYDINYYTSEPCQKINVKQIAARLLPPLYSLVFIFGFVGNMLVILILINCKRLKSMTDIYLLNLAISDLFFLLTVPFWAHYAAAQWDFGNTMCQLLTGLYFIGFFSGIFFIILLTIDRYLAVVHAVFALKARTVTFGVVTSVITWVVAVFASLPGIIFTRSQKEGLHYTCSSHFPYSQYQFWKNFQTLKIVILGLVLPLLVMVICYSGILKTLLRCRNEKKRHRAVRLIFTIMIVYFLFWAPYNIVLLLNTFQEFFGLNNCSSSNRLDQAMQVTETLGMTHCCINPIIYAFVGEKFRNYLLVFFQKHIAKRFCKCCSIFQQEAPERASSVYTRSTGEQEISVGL
Sequence of C-C chemokine receptor type 2 (P41597 whole entry): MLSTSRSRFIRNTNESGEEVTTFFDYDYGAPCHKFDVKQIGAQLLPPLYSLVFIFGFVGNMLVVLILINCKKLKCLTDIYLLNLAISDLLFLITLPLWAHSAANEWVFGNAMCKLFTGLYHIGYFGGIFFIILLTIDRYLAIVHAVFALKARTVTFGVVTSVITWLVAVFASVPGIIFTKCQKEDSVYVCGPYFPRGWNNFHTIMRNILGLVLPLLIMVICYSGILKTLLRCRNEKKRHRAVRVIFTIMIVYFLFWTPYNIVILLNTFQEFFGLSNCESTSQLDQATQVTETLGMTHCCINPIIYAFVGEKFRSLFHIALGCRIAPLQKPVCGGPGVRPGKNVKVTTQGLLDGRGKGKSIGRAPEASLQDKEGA
Sequence of Voltage-gated inwardly rectifying potassium channel KCNH2 (Q12809 whole entry): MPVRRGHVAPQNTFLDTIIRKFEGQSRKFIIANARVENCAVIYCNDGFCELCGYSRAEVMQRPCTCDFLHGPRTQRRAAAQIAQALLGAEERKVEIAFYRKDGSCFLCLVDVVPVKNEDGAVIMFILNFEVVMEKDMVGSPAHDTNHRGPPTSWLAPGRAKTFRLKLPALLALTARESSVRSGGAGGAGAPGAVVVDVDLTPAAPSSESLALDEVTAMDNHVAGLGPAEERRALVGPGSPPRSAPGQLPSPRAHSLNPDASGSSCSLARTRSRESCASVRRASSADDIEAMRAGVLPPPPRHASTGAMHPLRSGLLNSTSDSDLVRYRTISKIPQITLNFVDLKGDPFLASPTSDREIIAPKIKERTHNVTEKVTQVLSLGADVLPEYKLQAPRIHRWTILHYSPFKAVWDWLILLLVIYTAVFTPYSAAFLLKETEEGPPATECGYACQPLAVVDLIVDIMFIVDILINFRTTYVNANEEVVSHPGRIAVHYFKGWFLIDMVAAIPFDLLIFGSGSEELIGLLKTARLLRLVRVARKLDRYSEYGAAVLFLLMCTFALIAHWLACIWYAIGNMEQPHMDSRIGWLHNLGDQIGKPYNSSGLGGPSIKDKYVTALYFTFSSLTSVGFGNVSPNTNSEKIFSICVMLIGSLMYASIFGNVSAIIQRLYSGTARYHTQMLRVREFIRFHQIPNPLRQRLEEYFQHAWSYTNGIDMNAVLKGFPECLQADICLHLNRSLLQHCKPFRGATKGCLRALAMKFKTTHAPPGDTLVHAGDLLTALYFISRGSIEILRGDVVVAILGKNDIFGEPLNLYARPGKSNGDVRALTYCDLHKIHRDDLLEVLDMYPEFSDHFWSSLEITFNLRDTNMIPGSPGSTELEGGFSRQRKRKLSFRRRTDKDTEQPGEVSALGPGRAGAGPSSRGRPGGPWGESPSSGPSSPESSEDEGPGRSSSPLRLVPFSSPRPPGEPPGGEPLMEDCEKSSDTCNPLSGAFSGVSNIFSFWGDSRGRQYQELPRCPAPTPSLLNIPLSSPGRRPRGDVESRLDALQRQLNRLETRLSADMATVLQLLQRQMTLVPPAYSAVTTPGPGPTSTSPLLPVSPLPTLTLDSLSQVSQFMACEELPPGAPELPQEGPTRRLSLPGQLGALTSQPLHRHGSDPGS

Consider `CC(C)[C@]1(C(=O)NCc2cc(C(F)(F)F)cc(C(F)(F)F)c2)CC[C@@H](N2CCC(c3cccc(O)c3)CC2)C1` (single isomer, unassigned), for which the pIC50 in series [1] is 8.22; in series [3], 7.17. Also, in series [2], the IKr IC50/CCR2 IC50 ratio amounted to 11.

In series [1], `CC(C)[C@]1(C(=O)NCc2cc(C(F)(F)F)cc(C(F)(F)F)c2)CC[C@@H](N2CCC(c3ncccn3)CC2)C1` (single isomer, unassigned) gave a pIC50 of 6.84.

The compound `CC(C)[C@]1(C(=O)NCc2cc(C(F)(F)F)cc(C(F)(F)F)c2)CC[C@@H](N2CCC(c3ccc(F)cc3)CC2)C1` yielded an Activity in series [4] of 69%. Besides, the pIC50 in series [1] is 8.52; in series [3] it was 7.80. Also, the IKr IC50/CCR2 IC50 ratio in series [2] came to 5.

In the case of `CC(C)(O)[C@]1(C(=O)NCc2cc(C(F)(F)F)cc(C(F)(F)F)c2)CC[C@@H](N2CCC(c3ccc(F)cc3)CC2)C1`, the Activity in series [4] is 69%. Also, the pIC50 in series [1] was 8.89; in series [3] it was 7.27. The IKr IC50/CCR2 IC50 ratio in series [2] was determined as 42.

In the case of `CC(C)[C@]1(C(=O)NCc2cc(C(F)(F)F)cc(C(F)(F)F)c2)CC[C@@H](N2CCC(c3cncnc3)CC2)C1` (relative stereo), in series [1], the pIC50 is 7.92. In series [5], this compound had a half-life of 3.8 h. In series [6], this compound showed a bioavailability of 33%. In series [7], this compound gave a CL/F of 7 mL/min/kg.

Turning to `CC(C)[C@]1(C(=O)NCc2cc(C(F)(F)F)cc(C(F)(F)F)c2)CC[C@@H](N2CCC(c3cccnn3)CC2)C1` (single isomer, unassigned), the pIC50 in series [1] was 7.30.

Turning to `CC(C)[C@]1(C(=O)NCc2cc(C(F)(F)F)cc(C(F)(F)F)c2)CC[C@@H](N2CCC(c3cccc(C(=O)O)c3)CC2)C1` (single isomer, unassigned), the values for the pIC50 in series [1] and in series [3] were 7.39 and 6.22, respectively. The IKr IC50/CCR2 IC50 ratio in series [2] is 15.

For the compound `CC(C)[C@]1(C(=O)NCc2cc(C(F)(F)F)cc(C(F)(F)F)c2)CC[C@@H](N2CCC(c3cncnc3)CC2)C1` [listing 1 of 2 here], the Activity in series [4] worked out at 3%.

`CC(C)[C@]1(C(=O)NCc2cc(C(F)(F)F)cc(C(F)(F)F)c2)CC[C@@H](N2CCC(c3ccc(Cl)nn3)CC2)C1` (single isomer, unassigned): the negative logarithm of the IC50 (pIC50) in series [1] is 6.78.

Turning to `CC(C)[C@]1(C(=O)NCc2cc(C(F)(F)F)cc(C(F)(F)F)c2)CC[C@@H](N2CCC(c3ccncn3)CC2)C1` (single isomer, unassigned), the pIC50 is 7.36 in series [1] and 6.89 in series [3]. In addition, the IKr IC50/CCR2 IC50 ratio in series [2] was determined as 3.

`CC(C)(O)[C@]1(C(=O)NCc2cc(C(F)(F)F)cc(C(F)(F)F)c2)CC[C@@H](N2CCC(c3cncnc3)CC2)C1` showed an Activity in series [4] of 3%. For the same compound, the pIC50 in series [1] was 8.22.

In turn, `CC(C)[C@]1(C(=O)NCc2cc(C(F)(F)F)cc(C(F)(F)F)c2)CC[C@@H](N2CCC(c3cncnc3)CC2)C1` [listing 2 of 2 here] had a negative logarithm of the IC50 (pIC50) in series [1] of 8.30.

Regarding `CC(C)[C@]1(C(=O)NCc2cc(C(F)(F)F)cc(C(F)(F)F)c2)CC[C@@H](N2CCC(c3cccc(C(=O)O)c3)CC2)C1`, the pIC50 in series [1] is 7.21; in series [3], 5.56. Moreover, in series [2], the IKr IC50/CCR2 IC50 ratio turned out to be 45.

The compound `CC(C)[C@]1(C(=O)NCc2cc(C(F)(F)F)cc(C(F)(F)F)c2)CC[C@@H](N2CCC(c3cccnc3)CC2)C1` (relative stereo) gave a pIC50 in series [1] of 8.22.

In the case of `COc1cccc(C2CCN([C@@H]3CC[C@@](C(=O)NCc4cc(C(F)(F)F)cc(C(F)(F)F)c4)(C(C)C)C3)CC2)c1` (single isomer, unassigned), the pIC50 in series [1] was 8.22; in series [3], 6.66. The IKr IC50/CCR2 IC50 ratio in series [2] stood at 36.

In series [1], `CC(C)[C@]1(C(=O)NCc2cc(C(F)(F)F)cc(C(F)(F)F)c2)CC[C@@H](N2CCC(c3ccnnc3)CC2)C1` (single isomer, unassigned) had a pIC50 of 7.19.

Take `CC(C)[C@]1(C(=O)NCc2cc(C(F)(F)F)cc(C(F)(F)F)c2)CC[C@@H](N2CCC(c3cccc(F)c3)CC2)C1` (single isomer, unassigned): the pIC50 in series [1] was 8.40.
